# Laboratory results from ChEMBL document CHEMBL1201862, “PubChem BioAssay data set” (2004).
#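 48-hour exposure; five concentrations; linearly interpolated endpoints. GI50 marks 50% less growth.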 Active and inactive are the calls of the source. Cut-off read from the data, not from the text of the source: active = GI50 up to about 1.1 µM and inactive = higher.
# Experiments:
# Assay in all cases: inhibition of tumour cell growth, NCI panel, 48 h
# 786-0 = system: 786-0
# A498 = system: A498
# A549 = system: A549
# ACHN = system: ACHN
# BT-549 = system: BT-549
# CAKI-1 = system: CAKI-1
# CCRF-CEM = system: CCRF-CEM
# COLO 205 = system: COLO 205
# DU-145 = system: DU-145
# EKVX = system: EKVX
# HCC 2998 = system: HCC 2998
# HCT-116 = system: HCT-116
# HCT-15 = system: HCT-15
# HL-60 = system: HL-60
# HOP-62 = system: HOP-62
# HOP-92 = system: HOP-92
# HT-29 = system: HT-29
# Hs-578T = system: Hs-578T
# IGROV-1 = system: IGROV-1
# K562 = system: K562
# KM12 = system: KM12
# LOX IMVI = system: LOX IMVI
# M14 = system: M14
# MCF7 = system: MCF7
# MDA-MB-231 = system: MDA-MB-231
# MDA-MB-435 = system: MDA-MB-435
# MDA-N = system: MDA-N
# MOLT-4 = system: MOLT-4
# Malme-3M = system: Malme-3M
# NCI-H226 = system: NCI-H226
# NCI-H23 = system: NCI-H23
# NCI-H460 = system: NCI-H460
# NCI-H522 = system: NCI-H522
# NCI/ADR-RES = system: NCI/ADR-RES
# OVCAR-3 = system: OVCAR-3
# OVCAR-4 = system: OVCAR-4
# OVCAR-5 = system: OVCAR-5
# OVCAR-8 = system: OVCAR-8
# PC-3 = system: PC-3
# RPMI-8226 = system: RPMI-8226
# SF-268 = system: SF-268
# SF-295 = system: SF-295
# SF-539 = system: SF-539
# SK-MEL-28 = system: SK-MEL-28
# SK-MEL-2 = system: SK-MEL-2
# SK-MEL-5 = system: SK-MEL-5
# SK-OV-3 = system: SK-OV-3
# SN12C = system: SN12C
# SNB-19 = system: SNB-19
# SNB-75 = system: SNB-75
# SR = system: SR
# SW-620 = system: SW-620
# T47D = system: T47D
# TK-10 = system: TK-10
# U-251 = system: U-251
# UACC-257 = system: UACC-257
# UACC-62 = system: UACC-62
# UO-31 = system: UO-31
# RXF 393 = system: RXF 393
smiles,measurement,setting,value
OC(c1ccc2c(c1)OCO2)c1ccc2c(c1)OCO2,GI50,786-0,> 100 µM (inactive)
same,GI50,A498,54 µM (inactive)
same,GI50,A549,> 100 µM (inactive)
same,GI50,ACHN,> 100 µM (inactive)
same,GI50,BT-549,> 100 µM (inactive)
same,GI50,CAKI-1,> 100 µM (inactive)
same,GI50,CCRF-CEM,> 100 µM (inactive)
same,GI50,COLO 205,> 100 µM (inactive)
same,GI50,DU-145,> 100 µM (inactive)
same,GI50,EKVX,> 100 µM (inactive)
same,GI50,HCC 2998,> 100 µM (inactive)
same,GI50,HCT-116,> 100 µM (inactive)
same,GI50,HCT-15,> 100 µM
same,GI50,HL-60,> 100 µM (inactive)
same,GI50,HOP-62,> 100 µM (inactive)
same,GI50,HOP-92,> 100 µM (inactive)
same,GI50,HT-29,> 100 µM (inactive)
same,GI50,Hs-578T,> 100 µM (inactive)
same,GI50,IGROV-1,> 100 µM (inactive)
same,GI50,K562,> 100 µM (inactive)
same,GI50,KM12,> 100 µM (inactive)
same,GI50,LOX IMVI,> 100 µM (inactive)
same,GI50,M14,> 100 µM (inactive)
same,GI50,MCF7,> 100 µM (inactive)
same,GI50,MDA-MB-231,> 100 µM (inactive)
same,GI50,MDA-MB-435,> 100 µM (inactive)
same,GI50,MDA-N,> 100 µM (inactive)
same,GI50,MOLT-4,> 100 µM (inactive)
same,GI50,Malme-3M,> 100 µM (inactive)
same,GI50,NCI-H226,> 100 µM (inactive)
same,GI50,NCI-H23,> 100 µM (inactive)
same,GI50,NCI-H460,> 100 µM (inactive)
same,GI50,NCI-H522,> 100 µM (inactive)
same,GI50,NCI/ADR-RES,> 100 µM (inactive)
same,GI50,OVCAR-3,> 100 µM (inactive)
same,GI50,OVCAR-4,> 100 µM (inactive)
same,GI50,OVCAR-5,> 100 µM (inactive)
same,GI50,OVCAR-8,> 100 µM (inactive)
same,GI50,PC-3,> 100 µM (inactive)
same,GI50,RPMI-8226,> 100 µM (inactive)
same,GI50,SF-268,53.6 µM (inactive)
same,GI50,SF-295,> 100 µM (inactive)
same,GI50,SF-539,> 100 µM (inactive)
same,GI50,SK-MEL-28,> 100 µM (inactive)
same,GI50,SK-MEL-2,> 100 µM (inactive)
same,GI50,SK-MEL-5,> 100 µM (inactive)
same,GI50,SK-OV-3,> 100 µM (inactive)
same,GI50,SN12C,> 100 µM (inactive)
same,GI50,SNB-19,> 100 µM (inactive)
same,GI50,SNB-75,80.4 µM (inactive)
same,GI50,SR,> 100 µM (inactive)
same,GI50,SW-620,> 100 µM (inactive)
same,GI50,T47D,> 100 µM (inactive)
same,GI50,TK-10,> 100 µM (inactive)
same,GI50,U-251,> 100 µM (inactive)
same,GI50,UACC-257,> 100 µM (inactive)
same,GI50,UACC-62,> 100 µM (inactive)
same,GI50,UO-31,75 µM (inactive)
CCOC(=O)c1ccc(C(=O)OCC)n1-c1cc2cc(c1)CSCc1cc(cc(-n3c(C(=O)OCC)ccc3C(=O)OCC)c1)CSC2,GI50,786-0,> 10 µM (inactive)
same,GI50,A549,> 10 µM (inactive)
same,GI50,ACHN,> 10 µM (inactive)
same,GI50,BT-549,> 10 µM (inactive)
same,GI50,CAKI-1,> 10 µM (inactive)
same,GI50,CCRF-CEM,> 10 µM (inactive)
same,GI50,COLO 205,> 10 µM (inactive)
same,GI50,DU-145,> 10 µM (inactive)
same,GI50,EKVX,> 10 µM (inactive)
same,GI50,HCC 2998,> 10 µM (inactive)
same,GI50,HCT-116,> 10 µM (inactive)
same,GI50,HCT-15,> 10 µM
same,GI50,HL-60,> 10 µM (inactive)
same,GI50,HOP-62,> 10 µM (inactive)
same,GI50,HOP-92,> 10 µM (inactive)
same,GI50,HT-29,> 10 µM (inactive)
same,GI50,Hs-578T,> 10 µM (inactive)
same,GI50,IGROV-1,> 10 µM (inactive)
same,GI50,K562,> 10 µM (inactive)
same,GI50,KM12,> 10 µM (inactive)
same,GI50,LOX IMVI,> 10 µM (inactive)
same,GI50,M14,> 10 µM (inactive)
same,GI50,MCF7,> 10 µM (inactive)
same,GI50,MDA-MB-231,> 10 µM (inactive)
same,GI50,MDA-MB-435,> 10 µM (inactive)
same,GI50,MDA-N,> 10 µM (inactive)
same,GI50,MOLT-4,> 10 µM (inactive)
same,GI50,Malme-3M,> 10 µM (inactive)
same,GI50,NCI-H226,> 10 µM (inactive)
same,GI50,NCI-H23,> 10 µM (inactive)
same,GI50,NCI-H460,> 10 µM (inactive)
same,GI50,NCI-H522,> 10 µM (inactive)
same,GI50,NCI/ADR-RES,> 10 µM (inactive)
same,GI50,OVCAR-3,> 10 µM (inactive)
same,GI50,OVCAR-4,> 10 µM (inactive)
same,GI50,OVCAR-5,> 10 µM (inactive)
same,GI50,OVCAR-8,> 10 µM (inactive)
same,GI50,PC-3,> 10 µM (inactive)
same,GI50,RPMI-8226,> 10 µM (inactive)
same,GI50,RXF 393,> 10 µM (inactive)
same,GI50,SF-268,> 10 µM (inactive)
same,GI50,SF-295,> 10 µM (inactive)
same,GI50,SF-539,> 10 µM (inactive)
same,GI50,SK-MEL-28,> 10 µM (inactive)
same,GI50,SK-MEL-2,> 10 µM (inactive)
same,GI50,SK-MEL-5,> 10 µM (inactive)
same,GI50,SK-OV-3,> 10 µM (inactive)
same,GI50,SN12C,> 10 µM (inactive)
same,GI50,SNB-19,> 10 µM (inactive)
same,GI50,SNB-75,> 10 µM (inactive)
same,GI50,SR,> 10 µM (inactive)
same,GI50,SW-620,> 10 µM (inactive)
same,GI50,T47D,> 10 µM (inactive)
same,GI50,TK-10,> 10 µM (inactive)
same,GI50,U-251,> 10 µM (inactive)
same,GI50,UACC-257,> 10 µM (inactive)
same,GI50,UACC-62,> 10 µM (inactive)
same,GI50,UO-31,> 10 µM (inactive)
